Data on three molecules can be found in ChEMBL document CHEMBL1155145, “Calcineurin inhibition or mutation enhances cell wall inhibitors against Aspergillus fumigatus” (2007).

Assay [1] has as its system Aspergillus fumigatus. The assay can be described thus: Antifungal activity against Aspergillus fumigatus assessed as induction of balloon-like of hyphal apical tips at 32 ug/ml after 48 hrs. In kind it is functional, organism-based.
The subject of assay [2] is Aspergillus fumigatus. The assay can be described thus: Decrease in 1,3-beta-D-glucan level in Aspergillus fumigatus assessed as relative fluorescence units at 1 ug/ml by aniline blue fluorescence assay. Type of assay: functional.
Assay [3] relates to Aspergillus fumigatus. The assay can be described thus: Decrease in 1,3-beta-D-glucan level in Aspergillus fumigatus expressing delta-cnaA mutant assessed as relative fluorescence units at 1 ug/ml by aniline blue fluorescence assay. Type of assay: functional.
In assay [4] the test system is Aspergillus fumigatus. The assay can be described thus: Antifungal activity against Aspergillus fumigatus expressing delta-cnaA mutant assessed as dead microbial cells at 1 ug/ml by trimethine oxonol staining. Type of assay: functional.
The subject of assay [5] is Aspergillus fumigatus. The assay can be described thus: Antifungal activity against Aspergillus fumigatus assessed as inhibition of hyphal growth at 1 ug/ml by radial growth assay. Type of assay: functional, organism-based.
The test system of assay [6] is Aspergillus fumigatus. The assay can be described thus: Antifungal activity against Aspergillus fumigatus assessed as induction of stunted hyphal tips at 20 ng/ml after 6 hrs. Type of assay: functional, organism-based.
The subject of assay [7] is Aspergillus fumigatus. The assay can be described thus: Antifungal activity against Aspergillus fumigatus ungerminated conidia assessed as delay in germ-tube extension at 20 ng/ml after 60 hrs of fungal growth. Type of assay: functional, organism-based.
For assay [8], the system named is Aspergillus fumigatus. The assay can be described thus: Decrease in 1,3-beta-D-glucan level in Aspergillus fumigatus assessed as relative fluorescence units at 20 ng/ml by aniline blue fluorescence assay. Type of assay: functional.
Assay [9] relates to Aspergillus fumigatus. The assay can be described thus: Effect on cellular morphology of Aspergillus fumigatus assessed as induction hyphal tips blunting at 20 ng/ml. In kind it is functional, organism-based.
Assay [10] relates to Aspergillus fumigatus. The assay can be described thus: Effect on cellular morphology of Aspergillus fumigatus expressing delta-cnaA mutant assessed as induction hyphal tips blunting at 20 ng/ml. In kind it is functional, organism-based.
Assay [11] has as its system Aspergillus fumigatus. The assay can be described thus: Antifungal activity against Aspergillus fumigatus assessed as inhibition of hyphal growth at 20 ng/ml by radial growth assay. Type of assay: functional, organism-based.

The source made the active and inactive calls. The rule behind the calls is not given here.

For `C[C@@H]([C@H](N)C(=O)N[C@H](C(=O)O)[C@H]1O[C@@H](n2ccc(=O)[nH]c2=O)[C@H](O)[C@@H]1O)[C@H](O)c1ccc(O)cn1`, in assay [1], the outcome was Active.

As for `CC[C@H](C)C[C@H](C)CCCCCCCCC(=O)N[C@H]1C[C@@H](O)[C@@H](NCCN)NC(=O)[C@@H]2[C@@H](O)CCN2C(=O)[C@H]([C@H](O)CCN)NC(=O)[C@H]([C@H](O)[C@@H](O)c2ccc(O)cc2)NC(=O)[C@@H]2C[C@@H](O)CN2C(=O)[C@H]([C@@H](C)O)NC1=O` [CASPOFUNGIN], the RFU in assay [2] worked out at 6.187; in assay [3], 1.086. Also, in [4], the Activity was determined as 15%. The result in assay [5] was Active.

For `C=CC[C@@H]1/C=C(\C)C[C@H](C)C[C@H](OC)[C@H]2O[C@@](O)(C(=O)C(=O)N3CCCC[C@H]3C(=O)O[C@H](/C(C)=C/[C@@H]3CC[C@@H](O)[C@H](OC)C3)[C@H](C)[C@@H](O)CC1=O)[C@H](C)C[C@@H]2OC` [TACROLIMUS ANHYDROUS], the Activity result in assay [6] and in assay [7] was “Dose-dependent effect” throughout. The RFU in assay [8] was found to be 2.909. Also, the result in [9], in assay [10] and in [11] was Active.
